Literature values as cited in patent US8709996B2, “Pharmaceutical treatment process using chitosan or derivative thereof” (Archimedes Development Limited, priority 2003, dated 2014).

Details: pig, in vivo

| Substance | bioavailability of octreotide compared to a solution of octreotide alone |
| --- | --- |
| chitosan hydrochloride | substantial increases in bioavailability |
| trimethyl chitosan chloride | substantial increases in bioavailability |
